Key:
[1] = tested on: KCNQ channels; test: Thallium flux assay for KCNQ channel openers; assay type: cell-based; settings: HEK-293 cells stably transfected with a KCNQ family member; for Min conc. response: minimal active concentration: lowest concentration giving signal >= 4 SD of negative controls; for EC50: thallium flux, 10 point concentration series
Protocol: Thallium Flux Assay for KCNQ Channel Openers.
The thallium assay is a modification of that published by Weaver and is referenced in its entirety (Weaver, C. D. WO 02/31508, 2002).
Approximately 20,000 cells/well of an HEK-293 cell line stably transfected with one of the members of the KCNQ family were plated into clear-bottom, black-walled, poly-D-lysine coated, 384 well assay plates in 20 μl/well of low chloride plating medium. Low chloride plating medium was composed of the following: sodium gluconate, 109 mM; potassium gluconate, 5.4 mM; hemi-calcium gluconate, 3.6 mM; magnesium sulfate, 0.8 mM; sodium bicarbonate, 26.2 mM; sodium phosphate monobasic, 1.2 mM; glutamine, 2 mM; glucose, 5 mM; 4-(2-hydroxyethyl)-1-piperazineethanesulfonic acid (HEPES) (pH 7.3) 10 mM, MEM vitamin solution (10× concentration of vitamins, Gibco/LifeTechnologies 11120-052) and MEM amino acid solution (1× concentration of amino acids, Gibco/LifeTechnologies 11130-051).
Following overnight incubation in a 5% CO2 incubator at 37° C., the cells in the plates were loaded with 20 μl/well of a dye loading solution containing the commercially available thallium-sensitive fluorescent dye BTC-AM, the acetomethoxy ester of BTC (see U.S. Pat. No. 5,501,980) (2 μM) and pluronic acid F-127 (Molecular Probes P 6867) (0.02% w/v) in chloride free assay buffer. Chloride free assay buffer was composed of the following: sodium gluconate, 140 mM; potassium gluconate, 2.5 mM; hemi-calcium gluconate, 6 mM; hemi-magnesium gluconate, 2 mM; glucose, 5 mM; HEPES (pH 7.3), 10 mM.
Following incubation in the dye loading solution for from 45-90 min at room temperature, the dye loading solution was removed by aspiration and replaced with 40 μl/well of chloride free assay buffer.
Prior to addition to cell plates, test compound and standard compounds were dissolved in DMSO to 3 mM concentration. Compounds were then diluted from the 3 mM stock to 100-fold over the final assay concentration in DMSO. Finally, compounds in DMSO were diluted from 100-fold over the final assay concentration to 5-fold over the final assay concentration in chloride free assay buffer.
Ten μl/well of compounds at 5-fold over the final assay concentration were then added to the cell plates. This represents a 1:5 dilution, yielding the final test concentration. The wells used for test compounds were A1-P20. Wells A21-P22 contained a standard opener and a maximally efficacious concentration (positive control). Wells A23-P24 contained chloride free assay buffer containing 1% DMSO (negative control).
Following addition of test compounds, the plates were loaded onto the Molecular Devices FLIPR. The 488 nm line of the argon laser was used to excite the BTC and the emission filter was a 540(+/−30) nm. Images were collected at 1 Hz. Ten seconds of baseline were collected and then the FLIPR was used to add 13 μl/well of a stimulus buffer composed of 7.5 mM Tl2SO4 in chloride free assay buffer. Images were collected for an additional 60 seconds.
For data analysis, the amplitude of the average of the negative controls was subtracted from all wells. The amplitudes of the test compounds were then compared to the value of four standard deviations of the negative control wells. The lowest concentration of a test compound sufficient to generate a signal amplitude greater than or equal to four standard deviations from the amplitude of the negative controls was defined as the minimal active concentration.
For generating EC50 values, compounds were serially diluted in 1:3 volume increments to produce a 10 point concentration series. EC50 values were calculated by fitting the resulting amplitudes to a single-site logistic equation. EC50 was defined as the concentration of test compound required to yield 50% of the maximal response. Maximal response (Maximal opening) was the largest signal amplitude divided by the negative control amplitude generated by any concentration of a test compound. […]

[2] = molecular target: T1, mKCNQ2 channels (Mus musculus, UniProt Q9Z351); test: KCNQ whole-cell patch-clamp; assay type: cell-based; settings: for verified in a patch-clamp assay measuring the effect of compounds on the current of KCNQ channels: HEK 293 cells expressing mKCNQ2; for EC50: HEK 293 stable cell line expressing mKCNQ2, steady-state current at end of 600 ms step from holding potential -80 mV
T1 construct: expressed in transfected cells
Protocol: Examples 8 and 11 were verified in a patch-clamp assay measuring the effect of compounds on the current of KCNQ channels.
KCNQ Patch-clamp. Whole-cell patch-clamp recordings were made from an HEK 293 stable cell line expressing mKCNQ2 channels, maintained in culture for 1-2 days. Patch pipettes had initial resistances of 2.5-4 MΩ. Currents were recorded with an EPC-9 amplifier (HEKA, Lambrecht, Germany) controlled with software (Pulse, HEKA) run on a standard lab PC. Series resistance compensation was used during current recording, and set at 80%. The series resistance (R) and cell capacitance (C) were determined electronically by subtracting the capacitive currents at the onset and offset of a 5 mV voltage step. The cancellation of whole-cell capacitive transients was virtually complete in all cells. Analog current signals were low-pass filtered at 2.9 kHz using a four-pole Bessel filter −3 dB) and stored on a local network server computer at a sampling rate of 1.5 kHz. All recordings were performed at room temperature (20-22° C.). The pipette solution contained (mM):KCl, 150; CaCl2, 2.5; EGTA, 5; MgCl2, 1; HEPES, 10; pH to 7.3 with KOH, and Osmolality of 290-300 mOsm. The extracellular solution contained (mM): NaCl, 140; KCl, 2.5; CaCl2, 2.5; MgCl2, 1; glucose, 10; HEPES, 10; pH to 7.3 with NaOH, and Osmolality of […].
Concentration response data were generated by measuring the difference in the steady-state amplitude of current in the presence of compound at the end of a 600 ms voltage-clamp step from a holding potential of −80 mV. The concentration-response data were fitted with Hill-type equations: I=Imax/(1+EC50/[A]^nH), where I is the steady-state current at a given concentration of agonist [A]; and Imax, EC50 and nH are parameters estimated from the curve fit. In some cases the concentration-response data were fitted with equations consisting of the sum of two Hill-type components. Current-voltage (I/V) relationships for agonist-evoked currents were obtained by performing 600 ms voltage steps (−110 mV to +40 mV) in the absence and presence of agonist.

Row | SMILES | EC50 [1] [µM] | verified in a patch-clamp assay measuring the effect of compounds on the current of KCNQ channels [2] | EC50 [2] [µM] | Min conc. response [1] [µM]
1 | C[C@H](NC(=O)c1sc(CCN(C)Cc2ccco2)nc1C(F)(F)F)c1cccc(N2CCOCC2)c1 [Example 11, 2-[2-[(2-furanylmethyl)methylamino]ethyl]-N-[1-[3-(4-morpholinyl)phenyl]ethyl]-4-(trifluoromethyl)-5-thiazolecarboxamide] | 1 to 20 | verified |  | 30
2 | CC(=O)N1CCN(CC(O)c2nc(C(F)(F)F)c(C(=O)NC(C)c3cccc(C(F)(F)F)c3)s2)CC1 (stereo not shown) [Example 61, 2-[2-(4-acetyl-1-piperazinyl)-1-hydroxyethyl]-4-(trifluoromethyl)-N-[1-[3-(trifluoromethyl)phenyl]ethyl]-5-thiazolecarboxamide] |  |  |  | 10

The next lines start with results.

Row | EC50 [1] [µM] | verified in a patch-clamp assay measuring the effect of compounds on the current of KCNQ channels [2] | EC50 [2] [µM] | SMILES | Min conc. response [1] [µM]
3 | 1 to 20 | verified |  | CC(NC(=O)c1sc(CCN2CCOCC2)nc1C(F)(F)F)c1cccc(-c2cccnc2)c1 (stereo not shown) [Example 8] | 10
4 | 0.05 to 1 |  | 3.56 | CCN(CC)CCc1nc(C(F)(F)F)c(C(=O)NC(C)c2cccc(OC(F)(F)F)c2)s1 (stereo not shown) [Example 15] | 0.3
5 | 0.05 to 1 |  | 1.23 | CC(NC(=O)c1sc(CCN2CCSCC2)nc1C(F)(F)F)c1cccc(C(F)(F)F)c1 (stereo not shown) [Example 18, 2-[2-(4-thiomorpholinyl)ethyl]-4-(trifluoromethyl)-N-[1-[3-(trifluoromethyl)phenyl]ethyl]-5-thiazolecarboxamide] | 3

From patent US6933308B2 (Bristol-Myers Squibb Company, priority 2002, dated 2005)
